From patent US8778876B2, “Small-molecule inhibitors of Dengue and West Nile virus proteases” (The Board of Regents of the University of Texas System, priority 2011, dated 2014)
“Also recorded” adds a separate entry of the source. Read-outs that look alike come from different tables or passages of the source.

Legend:
physchem = conditions: pH 9, aqueous with cosolvent or surfactant or cyclodextrin, kinetic from dmso stock
DEN2V NS2B-NS3pro [1] = biological target: T1, DEN2V NS2B-NS3pro (Dengue virus type 2, UniProt Q91H74); experiment: Steady-state kinetics of inhibitors of DEN2V NS2B-NS3pro (Boc-GRR-AMC substrate, Dynafit); type: biochemical, Dengue 2 virus; conditions: for Mechanism: HTS-identified hits
T1 sequence (Q91H74 entry or part of it, added parts left off): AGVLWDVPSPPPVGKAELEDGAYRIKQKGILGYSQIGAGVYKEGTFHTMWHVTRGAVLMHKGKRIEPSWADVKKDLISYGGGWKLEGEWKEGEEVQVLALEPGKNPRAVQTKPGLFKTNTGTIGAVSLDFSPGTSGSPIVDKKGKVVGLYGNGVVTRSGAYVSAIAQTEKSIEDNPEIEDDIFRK
T1 sequence (Q91H74 entry or part of it partner, added parts left off): as the sequence (Q91H74 entry or part of it, added parts left off) above

WNV NS2B-NS3pro = WNV NS2B-NS3pro (West Nile virus, UniProt P06935); experiment: Steady-state kinetics of inhibitors of WNV NS2B-NS3pro; type: biochemical
Sequence of WNV NS2B-NS3pro (P06935 1502-1679 limits assumed): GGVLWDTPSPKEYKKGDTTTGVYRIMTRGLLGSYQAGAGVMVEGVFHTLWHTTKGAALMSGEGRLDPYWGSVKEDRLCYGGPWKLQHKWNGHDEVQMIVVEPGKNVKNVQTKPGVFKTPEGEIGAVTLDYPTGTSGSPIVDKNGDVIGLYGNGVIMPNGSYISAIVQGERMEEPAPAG
Sequence of WNV NS2B-NS3pro (P06935 1424-1463 partner limits assumed): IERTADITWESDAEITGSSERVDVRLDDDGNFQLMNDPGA

[2] = biological target: T2, Bovine pancreatic trypsin (Bos taurus, UniProt P00760); experiment: biochemical; type: biochemical
T2 construct: purchased Sigma Aldrich; host or cells: bovine pancreas
T2 sequence (P00760 24-246): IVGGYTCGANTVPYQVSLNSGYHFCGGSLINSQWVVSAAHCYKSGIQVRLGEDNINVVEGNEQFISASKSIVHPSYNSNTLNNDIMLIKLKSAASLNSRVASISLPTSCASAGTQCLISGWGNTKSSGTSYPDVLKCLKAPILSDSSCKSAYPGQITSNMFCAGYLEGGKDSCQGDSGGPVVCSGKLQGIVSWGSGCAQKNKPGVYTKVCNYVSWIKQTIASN

[3] = pH 9
DENV; WNV protease = type: biochemical, Dengue virus; West Nile virus
DEN2V NS2B-NS3pro [4] = biological target: T1, DEN2V NS2B-NS3pro; experiment: Preliminary DEN2V NS2B-NS3pro inhibition assay; type: biochemical, Dengue 2 virus; conditions: 100 nM protease, 100 μM Boc-GRR-AMC, 30 min at 25° C.; aprotinin at 100 μM
[5] = Ki1 (from biochemical protease inihibition experiments) Dengue 2 virus NS2B-NS3
[6] = Ki1 (from biochemical protease inihibition experiments) West Nile virus NS2B-NS
[7] = Table 1, DEN2V NS2B-NS3pro, read-out: Ki1
[8] = Table 1, DEN2V NS2B-NS3pro, read-out: Ki2
[9] = Table 2, WNV NS2B-NS3pro, read-out: Ki1
[10] = Table 2, WNV NS2B-NS3pro, read-out: Ki2

## O=C1c2ccc(O)c(O)c2C(=O)c2c(O)ccc(O)c21 [Compound 6A61]
physchem
  solubility: > 10 µM
DEN2V NS2B-NS3pro [1]; DEN2V NS2B-NS3 Ki1, second series analogs
  Ki: 72 ± 15 µM
DEN2V NS2B-NS3pro [1]; DEN2V NS2B-NS3 Ki2, second series analogs
  Ki: 10 ± 2 µM
DEN2V NS2B-NS3pro [1]; [5]
  Ki: 72 µM
DEN2V NS2B-NS3pro [1]; second series analogs
  DEN2V NS2B-NS3 Mechanism: Mixed
WNV NS2B-NS3pro; [6]
  Ki: 31 µM
[2]
  Trypsin Mechanism: did not inhibit trypsin; also recorded: No inhibition

## COc1cc(O)c2c(=O)c3c(O)ccc(OCl)c3oc2c1 [Compound 6A63]
physchem
  solubility: < 10 µM
[3]
  Solubility in the kinetic reaction buffer: not soluble

## O=c1ccc2[n+]([O-])c3ccc(O)cc3oc-2c1 [Compound 9A3]
DEN2V NS2B-NS3pro [1]; [5]
  Ki: 82 µM
WNV NS2B-NS3pro; [6]
  Ki: 72 µM

## CN(C)c1ccc2nc3ccc(=O)cc-3sc2c1 [Compound 9A4]
DEN2V NS2B-NS3pro [1]; [5]
  Ki: 359 µM
WNV NS2B-NS3pro; [6]
  Ki: 431 µM

## CCN(CC)c1ccc2nc3c4ccccc4c(=O)cc-3oc2c1 [Compound 9A6]
DEN2V NS2B-NS3pro [1]; [5]
  Ki: 53 µM
WNV NS2B-NS3pro; [6]
  Ki: 47 µM

## O=[N+]([O-])c1ccc(/C=N/c2ccc(O)c3ccccc23)c([N+](=O)[O-])c1 [Compound 260]
DENV; WNV protease
  Protease inhibited in Knock-down: DENV; WNV
DEN2V NS2B-NS3pro [1]; Denpro Ki1
  Ki: 52 µM
DEN2V NS2B-NS3pro [1]; Denpro Ki2
  Ki: 5 µM
WNV NS2B-NS3pro; WNpro Ki1
  Ki: 14 µM
WNV NS2B-NS3pro; WNpro Ki2
  Ki: 5 µM

## O=C(Nc1ccc(O)c2ccccc12)c1ccc([N+](=O)[O-])cc1[N+](=O)[O-] [Compound 273]
DENV; WNV protease
  Protease inhibited in Knock-down: DENV; WNV
DEN2V NS2B-NS3pro [1]; Denpro Ki1
  Ki: < 223 µM
WNV NS2B-NS3pro; WNpro Ki1
  Ki: < 169 µM
WNV NS2B-NS3pro; WNpro Ki2
  Ki: < 186 µM

## Oc1cc2ccc(/N=N/c3ccc4c(c3)OCO4)cc2cc1O [Compound 290]
DENV; WNV protease
  Protease inhibited in Knock-down: DENV; WNV
DEN2V NS2B-NS3pro [1]; Denpro Ki2
  Ki: < 8.5 µM
WNV NS2B-NS3pro; WNpro Ki2
  Ki: < 6 µM

## Oc1ccc2cc(/N=N/c3ccc4c(c3)OCO4)c(O)cc2c1 [Compound 292]
DENV; WNV protease
  Protease inhibited in Knock-down: WNV

## O=[N+]([O-])c1cc(/N=N/c2ccc3cc(O)c(O)cc3c2)ccc1O [Compound 293]
DENV; WNV protease
  Protease inhibited in Knock-down: DENV
DEN2V NS2B-NS3pro [1]; Denpro Ki1
  Ki: 432 µM
DEN2V NS2B-NS3pro [1]; Denpro Ki2
  Ki: 29 µM
WNV NS2B-NS3pro; WNpro Ki2
  Ki: 20 µM

## Oc1ccc2c(/N=N/c3ccc4c(c3)OCO4)ccc(O)c2c1 [Compound 296]
DENV; WNV protease
  Protease inhibited in Knock-down: DENV; WNV
DEN2V NS2B-NS3pro [1]; Denpro Ki1
  Ki: 215 µM
DEN2V NS2B-NS3pro [1]; Denpro Ki2
  Ki: 62 µM
WNV NS2B-NS3pro; WNpro Ki2
  Ki: 116 µM

## O=[N+]([O-])c1cc(/N=N/c2ccc(O)c3cc(O)ccc23)ccc1O [Compound 297]
DENV; WNV protease
  Protease inhibited in Knock-down: DENV; WNV
DEN2V NS2B-NS3pro [1]; Denpro Ki2
  Ki: 85 µM
WNV NS2B-NS3pro; WNpro Ki2
  Ki: 61 µM

## O=[N+]([O-])c1ccc(/N=N/c2ccc(O)c3cc(O)ccc23)c([N+](=O)[O-])c1 [Compound 298]
DENV; WNV protease
  Protease inhibited in Knock-down: DENV; WNV
DEN2V NS2B-NS3pro [1]; Denpro Ki1
  Ki: 40 µM
DEN2V NS2B-NS3pro [1]; Denpro Ki2
  Ki: 4 µM
WNV NS2B-NS3pro; WNpro Ki1
  Ki: 4 µM
WNV NS2B-NS3pro; WNpro Ki2
  Ki: 2 µM

## O=[N+]([O-])c1ccc(/N=N/c2ccc3cc(O)c(O)cc3c2)c(O)c1 [Compound 300]
DENV; WNV protease
  Protease inhibited in Knock-down: DENV; WNV
DEN2V NS2B-NS3pro [1]; Denpro Ki1
  Ki: 81 µM
DEN2V NS2B-NS3pro [1]; Denpro Ki2
  Ki: 5 µM
WNV NS2B-NS3pro; WNpro Ki1
  Ki: 3 µM
WNV NS2B-NS3pro; WNpro Ki2
  Ki: 2 µM

## Cc1ccc(O)c(/N=N/c2c(O)cc(O)c3ccccc23)c1 [Compound 301]
DENV; WNV protease
  Protease inhibited in Knock-down: DENV; WNV

## O=[N+]([O-])c1ccc(/N=N/c2c(O)cc(O)c3ccccc23)c(O)c1 [Compound 302]
DENV; WNV protease
  Protease inhibited in Knock-down: DENV; WNV

## CC(=O)Oc1cc2c(cc1OC(C)=O)[C@@H]1c3ccc(OC(C)=O)c(OC(C)=O)c3OC[C@]1(OC(C)=O)C2 [MS5, Haematoxylin pentaacetate]
DENV; WNV protease; compound incubated with cleavage buffer overnight (complete oxidation)
  Inhibition in single-point knock-down assays with either protease: no observable inhibition
DEN2V NS2B-NS3pro [1]; Table 1, DEN2V NS2B-NS3pro
  Mechanism: Mixed
DEN2V NS2B-NS3pro [1]; [7]
  Ki: 16 ± 7 µM
DEN2V NS2B-NS3pro [1]; [8]
  Ki: 5 ± 0.7 µM
WNV NS2B-NS3pro; Table 2, WNV NS2B-NS3pro
  Mechanism: Mixed

## CC[C@H](C)[C@H]1O[C@]2(CC[C@@H]1C)C[C@@H]1C[C@@H](C/C=C(\C)[C@@H](O[C@H]3C[C@H](OC)[C@@H](O[C@H]4C[C@H](OC)[C@@H](O)[C@H](C)O4)[C@H](C)O3)[C@@H](C)/C=C/C=C3\CO[C@@H]4[C@H](O)C(C)=C[C@@H](C(=O)O1)[C@]34O)O2 [MS21, Ivermectin, reference compound]
DEN2V NS2B-NS3pro [1]; Table 1, DEN2V NS2B-NS3pro
  Mechanism: Mixed
DEN2V NS2B-NS3pro [1]; [7]
  Ki: 79 ± 21 µM
DEN2V NS2B-NS3pro [1]; [8]
  Ki: 35 ± 4 µM
WNV NS2B-NS3pro; Table 2, WNV NS2B-NS3pro
  Mechanism: Mixed
WNV NS2B-NS3pro; [9]
  Ki: 55 ± 18 µM
WNV NS2B-NS3pro; [10]
  Ki: 16 ± 4 µM

## Cc1cc(C(C)(C)CC(C)(C)C)ccc1OCCOCC[N+](C)(C)Cc1ccccc1.[Cl-] [MS22, Methylbenzethonium chloride, reference compound]
DEN2V NS2B-NS3pro [1]; Table 1, DEN2V NS2B-NS3pro
  Mechanism: Mixed
DEN2V NS2B-NS3pro [1]; [7]
  Ki: 322 ± 81 µM
DEN2V NS2B-NS3pro [1]; [8]
  Ki: 160 ± 39 µM
WNV NS2B-NS3pro; Table 2, WNV NS2B-NS3pro
  Mechanism: Mixed
WNV NS2B-NS3pro; [9]
  Ki: 141 ± 20 µM
WNV NS2B-NS3pro; [10]
  Ki: 307 ± 80 µM

## CO[C@H]1C[C@H](O[C@@H]2/C(C)=C/C[C@@H]3C[C@@H](C[C@]4(CC[C@H](C)[C@@H](C5CCCCC5)O4)O3)OC(=O)[C@@H]3C=C(C)/C(=N/O)[C@H]4OC/C(=C\C=C\[C@@H]2C)[C@]43O)O[C@@H](C)[C@@H]1O [MS24, Selamectin, reference compound]
DEN2V NS2B-NS3pro [1]; Ki1, Table 1, DEN2V NS2B-NS3pro
  Ki: 63 ± 18 µM
DEN2V NS2B-NS3pro [1]; Ki2, Table 1, DEN2V NS2B-NS3pro
  Ki: 45 ± 8 µM
DEN2V NS2B-NS3pro [1]; Table 1, DEN2V NS2B-NS3pro
  Mechanism: Mixed
WNV NS2B-NS3pro; Ki1, Table 2, WNV NS2B-NS3pro
  Ki: 15 ± 9 µM
WNV NS2B-NS3pro; Ki2, Table 2, WNV NS2B-NS3pro
  Ki: 28 ± 6 µM
WNV NS2B-NS3pro; Table 2, WNV NS2B-NS3pro
  Mechanism: Mixed

## aprotinin [reference compound]
DEN2V NS2B-NS3pro [4]
  Inhibition of DEN2V NS2B-NS3pro in the preliminary inhibition assay: fluorescence levels that were similar to that of the “substrate alone” background control
